Test results as given in publication PMC8624133, “10th Trends in Medical Mycology Held on 8 to 11 October 2021, Aberdeen, Scotland, Organized by the European Confederation of Medical Mycology (ECMM)” (Journal of Fungi, 2021).
Converted amounts (≈) assume the structure as drawn.

What was measured:
[1] = tested on: C. glabrata; format: cell-based, Candida glabrata
[2] = tested on: C. tropicalis; format: cell-based, Candida tropicalis
[3] = tested on: C. albicans; format: cell-based, Candida albicans
[4] = tested on: C. parapsilosis; format: cell-based, Candida parapsilosis
[5] = tested on: Other species of Candida; format: cell-based, Candida spp.
[6] = tested on: C. krusei; format: cell-based, Candida krusei
[7] = tested on: Sporothrix brasiliensis; experiment: Murine subcutaneous sporotrichosis model; format: in vivo, Balb/c mice
Method: Materials & Methods: 50 Balb/c mice, male, five to seven-week-old, were subcutaneous infected (left footpad) by a clinical isolate of S. brasiliensis (5.4 × 10^7 yeast/mice). Treatments started seven days post-inoculation (p.i) in all five groups (10 mice/each): G1 control group (placebo—receiving just the diluent of the drugs), G2 treatment group (itraconazole—ITZ 50 mg/kg); G3 to G5 DD treatment groups, 1, 5 and 10 mg/kg, respectively. All mice were treated once a day by oral gavage, for 30 consecutive days. Physical conditions and behavior were daily evaluated, and individual weight was weekly determined. At the 32nd day p.i. (48 h after the end of the treatments) animals were euthanasied and lung, liver, brain, kidneys, testicle and footpad were recovered aseptically and homogenized to mycological analysis. Fungal burden in each organ was measured by quantitatively counting colony-forming units (CFU). The determination of colony forming units (CFU)/gram of tissue (g) of S. brasiliensis in internal organs of groups were compared by non-parametric tests using Kruskal-Wallis combined with Wilcoxon. The weight loss assay was calculated considering the percentage of loss and/or increase between the value corresponding to the fungal inoculation day and to the end of the treatment.

[8] = tested on: R. delemar; experiment: Murine mucormycosis, immunosuppressed mice infected intratracheally; format: in vivo, ICR mice; details: n = 20/arm
Method: (§1) Methods & Materials: In vitro susceptibility was conducted by the CLSI M38 method using a clinical isolate of Rhizopus delemar (a common cause of mucormycosis). ICR mice were immunosuppressed with cyclophosphamide and cortisone acetate on days −2, +3, and +8, relative to infection with intratracheally instilled R. delemar. […] Mice survival through Day +21 served as the primary endpoint.

[9] = tested on: R. delemar 99–880; experiment: CLSI M38 in vitro susceptibility; format: cell-based, Rhizopus delemar
Method: as §1

[10] = tested on: Rhizopus oryzae; experiment: Pandemic Box screening, EUCAST protocol; format: cell-based; details: for inhibition of R. oryzae growth: 5 µM
Method: (§2) Materials & Methods: An initial screening of the 400 compounds (5 µM) in this collection was performed with the Rhizopus oryzae, according to the EUCAST protocol. Compounds with activity against R. oryzae have also been tested against other mucormycosis etiological agents (Rhizopus microsporus e Rhizopus stolonifer) at concentrations ranging from 0.08 µM to 20 µM.

[11] = tested on: three Rhizopus species; experiment: MIC and fungicidal activity; format: cell-based, Rhizopus oryzae, R. microsporus, R. stolonifer; details: for MIC: 0.08 µM to 20 µM tested
Method: as §2

[12] = tested on: McLDM strains; experiment: EUCAST MIC, S. cerevisiae overexpressing M. circinelloides LDM, resistance phenotypes; format: cell-based, Saccharomyces cerevisiae
[13] = tested on: Trichophyton spp.; experiment: Agar-based screening method; format: cell-based; details: 0.5 McF, 5 days, 30 °C
Method: Inter-experimental variation was evaluated by testing 10 isolates on three different days. Single-centre validation: After determining the optimal conditions for the agar screening method, 112 molecularly identified Trichophyton spp. clinical isolates were tested.

[14] = tested on: clinical dermatophyte isolates; experiment: Inhibition of dermatophyte biofilm formation; format: cell-based
Method: Materials and Methods: The study population consisted of 50 dermatophyte isolates that were collected from 2019 to 2020 from patients referred to the two mycology laboratory of Shiraz, Iran. The isolates were identified by ITS gene region sequencing. The suspension (equivalent to 0.5 McFarland) of the isolates was used to evaluate the ability of the isolates to form biofilms and also the effect of itraconazole, terbinafine and griseofulvin at concentrations of 2–32 μg/mL on inhibiting biofilm formation. Two optical microscope and a scanning electron microscope were used to study the microscopic structure of biofilms formed on the surface of 96-well plate wells.

[15] = tested on: invasive and mucocutaneous fungal infections; experiment: FURI and CARES open-label studies combined; format: in vivo, human; details: 84 patients
Source text: Methods: FURI subjects were eligible for enrollment if they had proven or probable severe mucocutaneous candidiasis, invasive candidiasis, invasive aspergillosis, or other fungal diseases with evidence of treatment failure, intolerance, or toxicity related to a currently approved standard-of-care antifungal treatment or if they were unable to receive an approved oral antifungal option (e.g., susceptibility of the organism) and a continued IV antifungal therapy was clinically undesirable or unfeasible.

[16] = tested on: refractory fungal disease; experiment: FURI Phase 3 open-label study, refractory subset; format: in vivo, human; details: 44 refractory patients
Source text: Methods: FURI patients were eligible for enrollment if they have proven or probable, severe mucocutaneous candidiasis, invasive candidiasis or invasive aspergillosis and documented evidence of failure, intolerance, or toxicity related to a currently approved standard-of-care antifungal treatment or could not receive approved oral antifungal options (e.g., susceptibility of the organism) and continued IV antifungal therapy was clinically undesirable or unfeasible.

[17] = tested on: Exophiala phaeomuriformis; experiment: MIC, CLSI M27-A3; format: cell-based; details: read-out: MIC values
Method: Materials & Methods: The aviation kerosone samples came from an aviation company in Porto Alegre, state of Rio Grande do Sul, Brazil. The fungi isolation was carried out using the modified ASTM D6974-09 Standard. In this procedure, 500 mL kerosene samples were filtered, in triplicate, under aseptic conditions, under vacuum, using a 0.22 μm membrane (Millipore). After filtering, the membranes were deposited in potato dextrose agar culture medium. The plates were incubated in an oven at 30 °C for seven days. After this period, the colonies were isolated in new culture media for purification of the isolates. Molecular identification was performed through the sequencing of ITS DNA regions. The profile of sensitivity to clinical antifungals was assessed following protocols M27-A3 of the Clinical and Laboratory Standards Institute (CLSI).

[18] = tested on: serious or life-threatening pulmonary aspergillosis; experiment: Special Needs program: inhaled opelconazole in patients; format: in vivo, human
Source text: Opelconazole has been supplied to patients with serious or life-threatening pulmonary aspergillosis who have not responded to available mold-active therapies under a Special Needs program regulated in the United Kingdom by the Medicines and Healthcare products Regulatory Agency. Successful outcomes in the first two patients who developed invasive pulmonary aspergillosis due to infections with A. fumigatus complex shortly after lung transplantation have been reported [Pagani 2020].

[19] = following inhaled delivery, ref Colley T et al., 2017, 2019; cited from earlier work
Source text: A potent, effective inhaled anti-fungal agent with prolonged lung tissue residence and minimal systemic […] would be a valuable adjunct to current therapeutic options. To date, treatment using inhaled antifungal agents has been limited to repurposing available systemic medicines. Opelconazole is a novel triazole antifungal agent which was specifically designed for inhaled use and which is being developed as an inhaled treatment for pulmonary fungal disease.

[20] = tested on: A. fumigatus (resistant to posaconazole strain v79-63); experiment: Neutropenic animal model of invasive pulmonary aspergillosis; format: in vivo, CD-1 mice
[21] = 11 treated patients and 1 on prophylaxis

Nc1nc(=O)[nH]cc1F [5-FC, 5-flucytosine]
I (intermediate) isolates, n (%) [1]: 0 (0%)
R (resistant) isolates, n (%) [1]: 0 (0%)
S (sensitive) isolates, n (%) [1]: 71 (100%)
I (intermediate) isolates, n (%) [2]: 0 (0%)
R (resistant) isolates, n (%) [2]: 0 (0%)
S (sensitive) isolates, n (%) [2]: 57 (100%)
I (intermediate) isolates, n (%) [3]: 1 (0.5%)
R (resistant) isolates, n (%) [3]: 2 (1%)
S (sensitive) isolates, n (%) [3]: 199 (98.5%)
I (intermediate) isolates, n (%) [4]: 1 (0.6%)
R (resistant) isolates, n (%) [4]: 2 (01.2%)
S (sensitive) isolates, n (%) [4]: 170 (98.3%)
I (intermediate) isolates, n (%) [5]: 0 (0%)
R (resistant) isolates, n (%) [5]: 0 (0%)
S (sensitive) isolates, n (%) [5]: 26 (100%)
I (intermediate) isolates, n (%) [6]: 3 (42.9%)
R (resistant) isolates, n (%) [6]: 3 (42.9%)
S (sensitive) isolates, n (%) [6]: 1 (14.3%)

c1ccc([Se][Se]c2ccccc2)cc1 [DD, Diphenyl diselenide]
weight loss during treatment vs control group ([7]; DD 5 mg/kg): statistically higher rate of weight loss
fungal burden of internal organs vs placebo group ([7]; oral gavage once a day, 30 days, ITZ 50 mg/kg, DD 1, 5 or 10 mg/kg): higher fungal burdens

CC(C)[C@@H](C)[C@@]1(C)CC[C@]2(C)[C@H]3CC[C@@H]4[C@@]5(COC[C@@]4(C)[C@@H](OC[C@](C)(N)C(C)(C)C)[C@H](n4ncnc4-c4ccncc4)C5)C3=CC[C@@]2(C)[C@@H]1C(=O)O [IBREXA, Ibrexafungerp]
% Survival ([8]; through Day +21, placebo 0): 35%
Median Survival ([8]; treatment from 24 h post infection, IBREXA 30 mg/kg po BID 7 d, LAMB 10 mg/kg iv 4 d, POSA 30 mg/kg po QD 7 d, placebo 8): 15 days
minimum effective concentration (MEC) [9]: > 8 µg/mL

Oc1c(C(Nc2nc3ccccc3s2)c2ccc(OC(F)F)cc2)ccc2cccnc12 (stereo not shown) [MMV019724]
inhibition of R. oryzae growth [10]: more than 50%

COc1cc(NS(=O)(=O)c2ccc(C)cc2)c2ncccc2c1 [MMV098836]
inhibition of R. oryzae growth [10]: more than 50%

CCCCC(CC)CNC(=N)NC(=N)NCCCCCCNC(=N)NC(=N)NCC(CC)CCCC (stereo not shown) [MMV396785, Alexidine]
inhibition at 5 µM ([10]; Rhizopus arrhizus, read-out: inhibition of R. oryzae growth): > 50%
fungicidal activity [11]: 10 µM
MIC ([11]; Rhizopus): 0.63 to 1.25 µM (≈ 0.321 to 0.636 µg/mL)

Oc1cccc(C(Nc2nccs2)c2ccc3cccnc3c2O)c1 (stereo not shown) [MMV642550]
inhibition of R. oryzae growth [10]: more than 50%

c1cc(CN2CCCNCCNCCCNCC2)ccc1CN1CCCNCCNCCCNCC1 [MMV1580502]
inhibition of R. oryzae growth [10]: more than 50%

CCc1nc(N)nc(N)c1C#CC(C)c1cc(OC)cc(-c2ccncc2)c1 (stereo not shown) [MMV1580844]
inhibition of R. oryzae growth [10]: more than 50%
fungicidal activity [11]: did not show fungicidal activity
MIC [11]: 0.08 µM (≈ 0.0299 µg/mL)

Cc1cccc(C)c1C(=O)Nc1nc(-c2ccccn2)cc2ccccc12 [MMV1581558]
inhibition of R. oryzae growth [10]: more than 50%

CC(C)(C)C(O)C(Oc1ccc(Cl)cc1)n1cncn1 (stereo not shown) [TDM, triadimenol]
resistance characteristics [12]: same resistance characteristics as FLC

CCC(C)(C)c1ccc(CC(C)CN2C[C@@H](C)O[C@@H](C)C2)cc1 (stereo partly shown) [amorolfine]
optimal agar concentration preventing growth of WT isolates [13]: 0.5 mg/L

COC1=CC(=O)C[C@@H](C)[C@]12Oc1c(Cl)c(OC)cc(OC)c1C2=O [griseofluvin, griseofulvin]
IC50 ([14]; inhibition of biofilm formation, read-out: mean concentrations of IC50): 3.18 µg/mL (≈ 9.01 µM)
samples with IC50 in concentration <2 ([14]; tested at 2–32 μg/mL): 66%

CC(C)[C@@H](C)[C@@]1(C)CC[C@]2(C)[C@H]3CC[C@@H]4[C@@]5(COC[C@@]4(C)[C@@H](OC[C@](C)(N)C(C)(C)C)[C@H](n4ncnc4-c4ccncc4)C5)C3=CC[C@@]2(C)[C@@H]1C(=O)O [ibrexafungerp, Ibrexafungerp]
progression of disease [15]: 5.9%
stable disease [15]: 27.1%
complete response, partial response and clinical improvement ([15]; oral, DRC-determined): 65.1%
progression of disease [16]: 6.8%
stable disease [16]: 22.7%
complete response, partial response or clinical improvement ([16]; oral, DRC-determined): 59.1%

CC(=O)N1CCN(c2ccc(OCC3COC(Cn4ccnc4)(c4ccc(Cl)cc4Cl)O3)cc2)CC1 (stereo not shown) [ketoconazole]
MIC [17]: 125 µg/mL (≈ 235 µM)

Cc1cc(N2CCN(c3ccc(C(=O)Nc4ccc(F)cc4)cc3)CC2)ccc1OC[C@@H]1CO[C@@](Cn2cncn2)(c2ccc(F)cc2F)C1 [opelconazole]
drug-drug interactions [18, 21]: no drug-drug interactions reported
tolerability [18, 21]: generally well tolerated
Favorable responses at 3 months ([18]; patients who received opelconazole as treatment after no response to mold-active therapies, number of patients): 9 out of the 11
local concentrations in the lung [19]: high
systemic bioavailability [19]: minimal

B1: IL-18: Mouse cytokine IL-18 (protein, UniProt P70380 36-192, looked up)
Interleukin-18: NFGRLHCTTAVIRNINDQVLFVDKRQPVFEDMTDIDQSASEPQTRLIIYMYKDSEVRGLAVTLSVKDSKMSTLSCKNKIISFEEMDPPENIDDIQSDLIFFQKRVPGHNKMEFESSLYEGHFLACQKEDDAFKLILKKKDENGDKSVMFTLTNLHQS
log10CFU/lung ([20]; mean ± SEM, 3 animals treated for 3 d, placebo 6.1 ± 0.08): 4.82 ± 0.44 log10CFU/lung
survival rates ([20]; survival recorded until 15 d, IL-18 10 ng/mouse intranasally daily -2 d till +7 d, posaconazole 16 mg/kg/day, groups of 10, control 20%): 56%
